Data from patent US20260297085A1, “1 H-PYRROLO[2,3-B]PYRIDIN-4-YL]-2-OXOPYRROLIDINE-3-CARBONITRILE DERIVATIVES AS TYROSINE KINASE 2 (TYK2) INHIBITORS FOR THE TREATMENT OF INFLAMMATORY DISEASES” (BIOGEN MA INC., priority 2023, published 2026).
Where a name gives a salt, the structure may show the parent alone.

How the values were obtained:
[1] = target: T1, human TYK2 kinase domain (JH1) (Homo sapiens, UniProt P29597); test: JH1 biochemical assay for TYK2 (ADP-Glo kinase assay, recombinant JH1 catalytic domain, JAK3-974 peptide, 10 μM ATP)
T1 construct: recombinantly generated catalytic kinase (also known as JH1) domain of human JAK1, JAK2, JAK3 and TYK2
T1 sequence (P29597 897-1176 limits assumed): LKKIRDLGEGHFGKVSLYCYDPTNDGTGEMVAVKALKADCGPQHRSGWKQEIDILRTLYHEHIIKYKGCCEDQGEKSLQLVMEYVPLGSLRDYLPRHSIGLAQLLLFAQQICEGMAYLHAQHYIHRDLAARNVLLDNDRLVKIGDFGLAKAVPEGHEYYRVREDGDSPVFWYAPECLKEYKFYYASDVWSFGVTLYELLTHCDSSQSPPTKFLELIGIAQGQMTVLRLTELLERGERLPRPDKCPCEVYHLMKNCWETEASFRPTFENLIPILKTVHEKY
Method in brief: (§1)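 Luminescent ADP read-out after residual ATP depletion, 100 min reaction. Kinase domain concentrations were 4 nM (JAK1), 0.2 nM (JAK2), 0.3 nM (JAK3) and 2 nM (TYK2), each with 50 μM peptide. IC50 values came from 4-parameter logistic fits over 11 points, 3-fold steps, top 10 μM or 1 μM.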

[2] = target: T2, human JAK3 kinase domain (JH1) (Homo sapiens, UniProt P52333); test: JH1 biochemical assay for JAK3 (ADP-Glo kinase assay, recombinant JH1 catalytic domain, JAK3-974 peptide, 4 μM ATP)
T2 construct: recombinantly generated catalytic kinase (also known as JH1) domain of human JAK1, JAK2, JAK3 and TYK2
Method in brief: as §1

[3] = target: T3, human JAK1 kinase domain (JH1) (Homo sapiens, UniProt P23458); test: JH1 biochemical assay for JAK1 (ADP-Glo kinase assay, recombinant JH1 catalytic domain, JAK3-342 peptide, 35 μM ATP)
T3 construct: recombinantly generated catalytic kinase (also known as JH1) domain of human JAK1, JAK2, JAK3 and TYK2
Method in brief: as §1

[4] = target: T4, human JAK2 kinase domain (JH1) (Homo sapiens, UniProt O60674); test: JH1 biochemical assay for JAK2 (ADP-Glo kinase assay, recombinant JH1 catalytic domain, JAK3-974 peptide, 15 μM ATP)
T4 construct: recombinantly generated catalytic kinase (also known as JH1) domain of human JAK1, JAK2, JAK3 and TYK2
Method in brief: as §1

T4 sequence (O60674 849-1124 limits assumed): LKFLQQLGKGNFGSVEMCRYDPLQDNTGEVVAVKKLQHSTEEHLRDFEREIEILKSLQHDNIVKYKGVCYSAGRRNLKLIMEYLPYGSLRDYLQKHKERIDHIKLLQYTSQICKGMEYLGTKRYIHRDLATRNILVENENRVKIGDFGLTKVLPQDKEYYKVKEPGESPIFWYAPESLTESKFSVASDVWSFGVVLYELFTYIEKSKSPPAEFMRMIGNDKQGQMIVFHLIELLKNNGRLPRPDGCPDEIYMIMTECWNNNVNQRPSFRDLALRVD
T3 sequence (P23458 875-1153 limits assumed): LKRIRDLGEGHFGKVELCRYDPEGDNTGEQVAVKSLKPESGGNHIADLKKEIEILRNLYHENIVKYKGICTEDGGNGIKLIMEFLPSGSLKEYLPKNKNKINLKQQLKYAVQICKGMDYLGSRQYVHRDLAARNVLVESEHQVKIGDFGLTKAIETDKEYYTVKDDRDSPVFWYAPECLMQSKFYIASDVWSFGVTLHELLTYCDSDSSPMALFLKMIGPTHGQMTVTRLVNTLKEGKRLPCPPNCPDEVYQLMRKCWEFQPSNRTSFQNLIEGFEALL
T2 sequence (P52333 822-1111 limits assumed): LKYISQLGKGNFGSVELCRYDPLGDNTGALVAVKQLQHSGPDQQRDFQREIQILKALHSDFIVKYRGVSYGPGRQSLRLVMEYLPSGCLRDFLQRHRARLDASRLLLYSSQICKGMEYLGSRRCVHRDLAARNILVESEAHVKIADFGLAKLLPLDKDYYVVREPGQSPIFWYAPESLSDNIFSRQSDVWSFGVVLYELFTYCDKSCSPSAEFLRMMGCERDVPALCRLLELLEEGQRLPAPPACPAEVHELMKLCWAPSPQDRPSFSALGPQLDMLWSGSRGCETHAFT

Row | IC50 ([1]; TYK2 JH1, ADP-Glo) | IC50 ([2]; JAK3 JH1, ADP-Glo) | IC50 ([3]; JAK1 JH1, ADP-Glo) | IC50 ([4]; JAK2 JH1, ADP-Glo) | IC50 ([1]; JH1 kinase domain, ADP-Glo) | IC50 ([2]; JH1 kinase domain, ADP-Glo) | IC50 ([3]; JH1 kinase domain, ADP-Glo) | IC50 ([4]; JH1 kinase domain, ADP-Glo) | Structure (SMILES)
1 | > 0.1 µM | > 10 µM | > 10 µM | > 10 µM | – | – | – | – | COc1cc(-c2cn3nccc3c(N3C[C@@H](C)[C@@](C#N)(C4CC4)C3=O)n2)ccn1 [Example 231, (3R,4S)-3-cyclopropyl-1-(6-(2-methoxy-pyridin-4-yl)pyrazolo[1,5-a]pyrazin-4-yl)-4-methyl-2-oxopyrrolidine-3-carbonitrile trifluoroacetate]
2 | – | – | – | – | 0.02 to 0.05 µM | 0.1 to 1 µM | 1 to 5 µM | 0.1 to 1 µM | Cc1ccc(-c2cc3c(N4C[C@@H](C)[C@@](C#N)(C5CC5)C4=O)ccnn3c2)nn1 [Example 137, (3R,4S)-3-cyclopropyl-4-methyl-1-(6-(6-methylpyridazin-3-yl)pyrrolo[1,2-b]pyridazin-4-yl)-2-oxopyrrolidine-3-carbonitrile trifluoroacetate]
3 | – | – | – | – | 0.05 to 0.1 µM | 1 to 5 µM | 1 to 5 µM | 1 to 5 µM | COc1cnc(-c2cc3c(N4C[C@@H](C)[C@@](C#N)(C5CC5)C4=O)ccnn3c2)cn1 [Example 132, (3R,4S)-3-cyclopropyl-1-(6-(5-methoxypyrazin-2-yl)pyrrolo[1,2-b]pyridazin-4-yl)-4-methyl-2-oxopyrrolidine-3-carbonitrile trifluoroacetate]
4 | – | – | – | – | 0.02 to 0.05 µM | 0.1 to 1 µM | 0.1 to 1 µM | 1 to 5 µM | COc1cc(-c2cn3nccc3c(N3C[C@@H](C)[C@@](C#N)(C4CC4)C3=O)n2)c(F)cn1 [Example 196, (3R,4S)-3-cyclopropyl-1-(6-(5-fluoro-2-methoxypyridin-4-yl)pyrazolo[1,5-a]pyrazin-4-yl)-4-methyl-2-oxopyrrolidine-3-carbonitrile]
5 | – | – | – | – | > 0.1 µM | 1 to 5 µM | 5 to 10 µM | > 10 µM | C[C@@H]1CN(c2ccnn3cc(-c4nccc(C(F)(F)F)n4)cc23)C(=O)[C@]1(C#N)C1CC1 [Example 120, (3R,4S)-3-cyclopropyl-4-methyl-2-oxo-1-(6-(4-(trifluoromethyl)pyrimidin-2-yl)pyrrolo[1,2-b]pyridazin-4-yl)pyrrolidine-3-carbonitrile trifluoroacetate]
6 | > 0.1 µM | 1 to 5 µM | > 10 µM | > 10 µM | – | – | – | – | C[C@@H]1CN(c2ccnn3cc(-n4ccccc4=O)cc23)C(=O)[C@]1(C#N)C1CC1 [Example 340, (3R,4S)-3-cyclopropyl-4-methyl-2-oxo-1-(6-(2-oxopyridin-1(2H)-yl)pyrrolo[1,2-b]pyridazin-4-yl)pyrrolidine-3-carbonitrile]
7 | – | – | – | – | 0.05 to 0.1 µM | 1 to 5 µM | 1 to 5 µM | 1 to 5 µM | C[C@@H]1CN(c2ccnn3cc(-c4cnccn4)cc23)C(=O)[C@]1(C#N)C1CC1 [Example 151, (3R,4S)-3-cyclopropyl-4-methyl-2-oxo-1-(6-(pyrazin-2-yl)pyrrolo[1,2-b]pyridazin-4-yl)pyrrolidine-3-carbonitrile trifluoroacetate]
8 | 0.02 to 0.05 µM | 1 to 5 µM | 0.1 to 1 µM | 1 to 5 µM | – | – | – | – | C[C@@H]1CN(c2nc(-c3cncc(Cl)c3)cn3nccc23)C(=O)[C@]1(C#N)C1CC1 [Example 248, (3R,4S)-1-(6-(5-chloropyridin-3-yl)pyrazolo[1,5-a]pyrazin-4-yl)-3-cyclopropyl-4-methyl-2-oxopyrrolidine-3-carbonitrile trifluoroacetate]
9 | > 0.1 µM | > 10 µM | 5 to 10 µM | > 10 µM | – | – | – | – | C[C@@H]1CN(c2nc(-c3cccnc3F)cn3nccc23)C(=O)[C@]1(C#N)C1CC1 [Example 226, (3R,4S)-3-cyclopropyl-1-(6-(2-fluoropyridin-3-yl)pyrazolo[1,5-a]pyrazin-4-yl)-4-methyl-2-oxopyrrolidine-3-carbonitrile trifluoroacetate]
10 | – | – | – | – | > 0.1 µM | > 10 µM | > 10 µM | 5 to 10 µM | Cn1cc(-c2cc3c(N4CC[C@](C#N)(C5CCC5)C4=O)ccnn3c2)cn1 (single isomer, unassigned) [Example 47]
11 | – | – | – | – | > 0.1 µM | > 10 µM | > 10 µM | > 10 µM | C[C@H]1C[C@](C#N)(C2CC2)C(=O)N1c1ccnn2cc(-c3cnn(C)c3)cc12 [Example 30, (3R,5S)-3-cyclopropyl-5-methyl-1-(6-(1-methyl-1H-pyrazol-4-yl)pyrrolo[1,2-b]pyridazin-4-yl)-2-oxopyrrolidine-3-carbonitrile]
12 | – | – | – | – | > 0.1 µM | 1 to 5 µM | 1 to 5 µM | 1 to 5 µM | Cn1cc(-c2cc3c(N4C[C@H](C(F)F)[C@@](C#N)(C5CC5)C4=O)ccnn3c2)cn1 (racemic) [Example 152, rac-(3R,4R)-3-cyclopropyl-4-(difluoromethyl)-1-(6-(1-methyl-1H-pyrazol-4-yl)pyrrolo[1,2-b]pyridazin-4-yl)-2-oxopyrrolidine-3-carbonitrile]
13 | > 0.1 µM | > 10 µM | > 10 µM | 1 to 5 µM | – | – | – | – | C[C@@H]1CN(c2ncnc3cc(-c4cnn(C)c4)sc23)C(=O)[C@]1(C#N)C1CC1 [Example 286, (3R,4S)-3-cyclopropyl-4-methyl-1-(6-(1-methyl-1H-pyrazol-4-yl)thieno[3,2-d]pyrimidin-4-yl)-2-oxopyrrolidine-3-carbonitrile]
14 | – | – | – | – | > 0.1 µM | > 10 µM | > 10 µM | > 10 µM | C[C@@H]1CN(c2ccnn3cc(-c4cnn(C)c4)cc23)C(=O)[C@@]1(C#N)C1CC1 [Example 21, (3S,4S)-3-cyclopropyl-4-methyl-1-(6-(1-methyl-1H-pyrazol-4-yl)pyrrolo[1,2-b]pyridazin-4-yl)-2-oxopyrrolidine-3-carbonitrile]
15 | – | – | – | – | 0.05 to 0.1 µM | 5 to 10 µM | 1 to 5 µM | > 10 µM | Cc1ccc(O)c(-c2cc3c(N4C[C@@H](C)[C@@](C#N)(C5CC5)C4=O)ccnn3c2)n1 [Example 140, (3R,4S)-3-cyclopropyl-1-(6-(3-hydroxy-6-methylpyridin-2-yl)pyrrolo[1,2-b]pyridazin-4-yl)-4-methyl-2-oxopyrrolidine-3-carbonitrile trifluoroacetate]
16 | – | – | – | – | 0.02 to 0.05 µM | > 10 µM | 5 to 10 µM | > 10 µM | C[C@@H]1CN(c2ccnn3cc(-c4cncc(Cl)c4)cc23)C(=O)[C@]1(C#N)C1CC1 [Example 87, (3R,4S)-1-(6-(5-chloropyridin-3-yl)pyrrolo[1,2-b]pyridazin-4-yl)-3-cyclopropyl-4-methyl-2-oxopyrrolidine-3-carbonitrile]
17 | – | – | – | – | > 0.1 µM | > 10 µM | > 10 µM | 5 to 10 µM | Cn1cc(-c2cc3c(N4CC[C@](C#N)(C5CC5)C4=O)ccnn3c2)cn1 [Example 14, (R)-3-cyclopropyl-1-(6-(1-methyl-1H-pyrazol-4-yl)pyrrolo[1,2-b]pyridazin-4-yl)-2-oxopyrrolidine-3-carbonitrile]
18 | – | – | – | – | > 0.1 µM | 1 to 5 µM | 1 to 5 µM | 1 to 5 µM | Cn1cc(-c2cc3c(N4CC[C@@](CC#N)(C5CC5)C4=O)ccnn3c2)cn1 [Example 27, (R)-2-(3-cyclopropyl-1-(6-(1-methyl-1H-pyrazol-4-yl)pyrrolo[1,2-b]pyridazin-4-yl)-2-oxopyrrolidin-3-yl)acetonitrile]
19 | – | – | – | – | 0.05 to 0.1 µM | 1 to 5 µM | 1 to 5 µM | 5 to 10 µM | COc1cnc(-c2cc3c(N4C[C@@H](C)[C@@](C#N)(C5CC5)C4=O)ccnn3c2)nc1 [Example 136, (3R,4S)-3-cyclopropyl-1-(6-(5-methoxypyrimidin-2-yl)pyrrolo[1,2-b]pyridazin-4-yl)-4-methyl-2-oxopyrrolidine-3-carbonitrile trifluoroacetate]
20 | – | – | – | – | > 0.1 µM | > 10 µM | > 10 µM | > 10 µM | C[C@@H]1CN(c2ccnn3c(F)c(-c4cnn(C)c4)nc23)C(=O)[C@]1(C#N)C1CC1 [Example 183, (3R,4S)-3-cyclopropyl-1-(3-fluoro-2-(1-methyl-1H-pyrazol-4-yl)imidazo[1,2-b]pyridazin-8-yl)-4-methyl-2-oxopyrrolidine-3-carbonitrile]
21 | – | – | – | – | 0.05 to 0.1 µM | 1 to 5 µM | 0.1 to 1 µM | 1 to 5 µM | COc1ncc(-c2cc3c(N4C[C@@H](C)[C@@](C#N)(C5CC5)C4=O)ccnn3c2)cn1 [Example 76, (3R,4S)-3-cyclopropyl-1-(6-(2-methoxypyrimidin-5-yl)pyrrolo[1,2-b]pyridazin-4-yl)-4-methyl-2-oxopyrrolidine-3-carbonitrile]
22 | – | – | – | – | 0.02 to 0.05 µM | 1 to 5 µM | 1 to 5 µM | 1 to 5 µM | C[C@@H]1CN(c2ccnn3cc(-c4cc(C(F)(F)F)nn4C)cc23)C(=O)[C@]1(C#N)C1CC1 [Example 107, (3R,4S)-3-cyclopropyl-4-methyl-1-(6-(1-methyl-3-(trifluoromethyl)-1H-pyrazol-5-yl)pyrrolo[1,2-b]pyridazin-4-yl)-2-oxopyrrolidine-3-carbonitrile trifluoroacetate]
